In the supplement of paper PMC11616607 one finds drug sensitivity score data, which are given here for 31 compounds.

For the first assay, the system named is COV362. The experiment in a line: drug sensitivity score (DSS) from 5-point dose-response viability curve (DSS (area-under-curve based score)); higher = more sensitive (stronger growth inhibition or killing); extreme values may be limits of the assay. Conditions: exposure time: 72 h; concentration range: 5 concentrations over 10,000-fold range. The gist of the method: (§1)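 Each cell line and drug received a drug sensitivity score from Breeze software, where higher means more sensitive. Zero stands for no response. Scores came from CellTiter-Glo viability readings of ovarian cancer and normal ovarian cells, 1,500 per well in 384-well plates, after 3 days at 37°C, 5% CO2 with drugs at five concentrations over a 10,000-fold range.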
The compound `Oc1ncnc2[nH]ncc12` [Allopurinol] had a drug sensitivity score of 0.
The compound `Cc1nc(NC(=O)N2CCC[C@H]2C(N)=O)sc1-c1ccnc(C(C)(C)C(F)(F)F)c1` [Alpelisib] had a drug sensitivity score of 0.
In the case of `O=C(Nc1cc(Oc2cc(F)c(NC(=O)C3(C(=O)Nc4ccc(F)cc4)CC3)cc2F)ccn1)C1CC1` [Altiratinib], the drug sensitivity score was 3.
In the case of `CN1CC[C@H](c2c(O)cc(O)c3c(=O)cc(-c4ccccc4Cl)oc23)[C@H](O)C1` [Alvocidib], the drug sensitivity score was found to be 12.1.
Compound `CCN(CC)CCNC(=O)c1c(C)[nH]c(/C=C2\C(=O)Nc3ccc(-c4csc(-c5ccccc5)n4)cc32)c1C` [Amcasertib] returned a drug sensitivity score of 0.5.
`CCC1(c2ccc(N)cc2)CCC(=O)NC1=O` (configuration not stated) [Aminoglutethimide]: the drug sensitivity score is 0.
As to `COc1cc(NS(C)(=O)=O)ccc1Nc1c2ccccc2nc2ccccc12` [Amsacrine], the drug sensitivity score was 1.
Same read-out and setting: the value for `S=C(NCc1ccc2c(c1)OCO2)N1CCN(c2ncnc3c2oc2ccccc23)CC1` [Amuvatinib] was 0; that for `O=C1CN2Cc3c(ccc(Cl)c3Cl)N=C2N1` [Anagrelide] was 0.
Turning to `CC(C)(C#N)c1cc(Cn2cncn2)cc(C(C)(C)C#N)c1` [Anastrozole], the drug sensitivity score is 0.
For `CNC(=O)c1ccc(N2C(=S)N(c3cnc(C#N)c(C(F)(F)F)c3)C(=O)C23CCC3)cc1F` [Apalutamide], the drug sensitivity score was 0.
For the compound `N#CC1(c2ccc(NC(=O)c3cccnc3NCc3ccncc3)cc2)CCCC1` [Apatinib], the drug sensitivity score stood at 0.
Turning to `O=C(Nc1ccc(OC(F)(F)Cl)cc1)c1cnc(N2CC[C@@H](O)C2)c(-c2cc[nH]n2)c1` [Asciminib], the drug sensitivity score was found to be 0.
Compound `CC(C)c1c(C(=O)Nc2ccccc2)c(-c2ccccc2)c(-c2ccc(F)cc2)n1CC[C@@H](O)C[C@@H](O)CC(=O)O` [Atorvastatin] displayed a drug sensitivity score of 0.
The compound `CC(=O)OC[C@H]1O[C@@H]([S-])[C@H](OC(C)=O)[C@@H](OC(C)=O)[C@@H]1OC(C)=O.CCP(CC)CC.[Au+]` [Auranofin] had a drug sensitivity score of 0.
Still for that read-out and setting: for `CNC(=O)c1ccccc1Sc1ccc2c(/C=C/c3ccccn3)n[nH]c2c1` [Axitinib] the value was 0.

A further assay deals with OVCAR8. The description is as above. Particulars: exposure time: 72 h; concentration range: 5 concentrations over 10,000-fold range. Put shortly:
as §1
Turning to `COc1ccc(-c2ccc3c(N4CCOC[C@@H]4C)nc(N4CCOC[C@@H]4C)nc3n2)cc1CO` [AZD8055], the drug sensitivity score stood at 17.2.
Regarding `N#Cc1ccc2[nH]c(O)c(-c3ccc(CN4CCOCC4)cn3)c2c1` [AZD-1080], the drug sensitivity score was 0.
Consider `Cc1ncc(-c2ccnc(Nc3ccc(S(C)(=O)=O)cc3)n2)n1C(C)C` [AZD-5438], for which the drug sensitivity score is 8.4.
`Cc1cc([C@@H](C)Nc2ccccc2C(=O)O)c2nc(N3CCOCC3)cc(=O)n2c1` [AZD-6482] displayed a drug sensitivity score of 0.7.
Same read-out and setting: the value for `C[C@@H](Nc1cc(F)cc(F)c1)c1cc(C(=O)N(C)C)cc2c(=O)cc(N3CCOCC3)oc12` [AZD-8186] was 0.6; that for `CCN1CCN(Cc2ccc(Nc3ncc(F)c(-c4cc(F)c5nc(C)n(C(C)C)c5c4)n3)nc2)CC1` [Abemaciclib] was 0.7; that for `CN(C)Cc1c(C(=O)NCCOc2ccc(C(=O)NO)cc2)oc2ccccc12` [Abexinostat] was 19.9.
`C[C@]12CC[C@H](O)CC1=CC[C@@H]1[C@@H]2CC[C@]2(C)C(c3cccnc3)=CC[C@@H]12` [Abiraterone]: the drug sensitivity score was determined as 0.
`CC#CC(=O)N1CCC[C@H]1c1nc(-c2ccc(C(=O)Nc3ccccn3)cc2)c2c(N)nccn12` [Acalabrutinib] gave a drug sensitivity score of 0.
The compound `COc1cc(C)c(/C=C/C(C)=C/C=C/C(C)=C/C(=O)O)c(C)c1C` [Acitretin] showed a drug sensitivity score of 0.
Same read-out and setting: the value for `CN(C)C/C=C/C(=O)Nc1cc2c(Nc3ccc(F)c(Cl)c3)ncnc2cc1O[C@H]1CCOC1` [Afatinib] was 0.3; that for `Cn1ncc(Cl)c1-c1cc(C(=O)N[C@H](CN)Cc2cccc(F)c2)sc1Cl` [Afuresertib] was 0.5; that for `COc1cccc2c1C(=O)c1c(O)c3c(c(O)c1C2=O)C[C@@](O)(/C(CO)=N/NC(=O)CCCCCN1C(=O)C=CC1=O)C[C@@H]3O[C@H]1C[C@H](N)[C@H](O)[C@H](C)O1` [Aldoxorubicin] was 10.
Turning to `CCc1cc2c(cc1N1CCC(N3CCOCC3)CC1)C(C)(C)c1[nH]c3cc(C#N)ccc3c1C2=O` [Alectinib], the drug sensitivity score was determined as 0.4.
The compound `COc1cc(Nc2ncc3c(n2)-c2ccc(Cl)cc2C(c2c(F)cccc2OC)=NC3)ccc1C(=O)O` [Alisertib] gave a drug sensitivity score of 9.4.
Same read-out and setting: the value for `Oc1ncnc2[nH]ncc12` [Allopurinol] was 0.
Turning to `Cc1nc(NC(=O)N2CCC[C@H]2C(N)=O)sc1-c1ccnc(C(C)(C)C(F)(F)F)c1` [Alpelisib], the drug sensitivity score stood at 0.3.
Compound `O=C(Nc1cc(Oc2cc(F)c(NC(=O)C3(C(=O)Nc4ccc(F)cc4)CC3)cc2F)ccn1)C1CC1` [Altiratinib] showed a drug sensitivity score of 6.
On the same count and under the same terms, the value for `CN1CC[C@H](c2c(O)cc(O)c3c(=O)cc(-c4ccccc4Cl)oc23)[C@H](O)C1` [Alvocidib] was 17.8; that for `CCN(CC)CCNC(=O)c1c(C)[nH]c(/C=C2\C(=O)Nc3ccc(-c4csc(-c5ccccc5)n4)cc32)c1C` [Amcasertib] was 0.6.
On to `CCC1(c2ccc(N)cc2)CCC(=O)NC1=O` (configuration not stated) [Aminoglutethimide], for which the drug sensitivity score was found to be 0.
On to `COc1cc(NS(C)(=O)=O)ccc1Nc1c2ccccc2nc2ccccc12` [Amsacrine], for which the drug sensitivity score was 10.
As to `S=C(NCc1ccc2c(c1)OCO2)N1CCN(c2ncnc3c2oc2ccccc23)CC1` [Amuvatinib], the drug sensitivity score is 7.9.
Consider `O=C1CN2Cc3c(ccc(Cl)c3Cl)N=C2N1` [Anagrelide], for which the drug sensitivity score worked out at 0.
On the same count and under the same terms, for `CC(C)(C#N)c1cc(Cn2cncn2)cc(C(C)(C)C#N)c1` [Anastrozole] the value was 0; for `CNC(=O)c1ccc(N2C(=S)N(c3cnc(C#N)c(C(F)(F)F)c3)C(=O)C23CCC3)cc1F` [Apalutamide], 0.
`N#CC1(c2ccc(NC(=O)c3cccnc3NCc3ccncc3)cc2)CCCC1` [Apatinib] registered a drug sensitivity score of 0.
Same read-out and setting: the value for `O=C(Nc1ccc(OC(F)(F)Cl)cc1)c1cnc(N2CC[C@@H](O)C2)c(-c2cc[nH]n2)c1` [Asciminib] was 0; that for `CC(C)c1c(C(=O)Nc2ccccc2)c(-c2ccccc2)c(-c2ccc(F)cc2)n1CC[C@@H](O)C[C@@H](O)CC(=O)O` [Atorvastatin] was 3.6.
With `CC(=O)OC[C@H]1O[C@@H]([S-])[C@H](OC(C)=O)[C@@H](OC(C)=O)[C@@H]1OC(C)=O.CCP(CC)CC.[Au+]` [Auranofin], the drug sensitivity score was 3.4.
Still for that read-out and setting: for `CNC(=O)c1ccccc1Sc1ccc2c(/C=C/c3ccccn3)n[nH]c2c1` [Axitinib] the value was 2.
